Reference: US7700610B2, “Use of tyrosine kinase inhibitors for treating allergic diseases” (AB Science, priority 2001, dated 2010)

Key:
[1] = system: dog afflicted with severe atopic dermatitis; conditions: 3 year old dog with severe atopic dermatitis, 3 mg/kg/d together with cefalexine and ketoconazole
dog cutaneous mast cells = conditions: in vitro, Garcia and DeMora, Am J Vet Res 1997; cited from earlier work

Cc1ccc(NC(=O)c2ccc(CN3CCN(C)CC3)cc2)cc1Nc1nccc(-c2cccnc2)n1 [4-(4-méthylpipérazine-1-ylméthyl)-N-[4-méthyl-3-[(4-pyridine-3-yl-)pyrimidine-2Yl)amino-)]phényl]-benzamide]
superficial pyodermatitis and generalized Malassezia dermatitis following treatment (FIG. 3) [1]: resolution of the superficial pyodermatitis and generalized Malassezia dermatitis

CCOC(=O)N1CCC(=C2c3ccc(Cl)cc3CCc3cccnc32)CC1 [loratadine]
inhibition of histamine release (dog cutaneous mast cells): potent inhibition | prodegranulating effect (dog cutaneous mast cells): without a substantial prodegranulating effect
